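In this assay, cells in 96-well plates receive the compound at five concentrations for 48 hours. Endpoints are linearly interpolated between the surrounding concentrations. Abbreviation: GI50, concentration required for 50% inhibition of growth.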 Calls of active or inactive are those of the source. Rule as the data show it: active = GI50 up to about 1.1 µM and inactive = higher.
What was measured:
Test in all cases: NCI anticancer screen, dose series, 48 h
786-0 = system: 786-0
A498 = system: A498
A549 = system: A549
ACHN = system: ACHN
BT-549 = system: BT-549
CAKI-1 = system: CAKI-1
CCRF-CEM = system: CCRF-CEM
COLO 205 = system: COLO 205
DU-145 = system: DU-145
EKVX = system: EKVX
HCC 2998 = system: HCC 2998
HCT-116 = system: HCT-116
HCT-15 = system: HCT-15
HL-60 = system: HL-60
HOP-62 = system: HOP-62
HOP-92 = system: HOP-92
HT-29 = system: HT-29
Hs-578T = system: Hs-578T
IGROV-1 = system: IGROV-1
K562 = system: K562
KM12 = system: KM12
M14 = system: M14
MCF7 = system: MCF7
MDA-MB-231 = system: MDA-MB-231
MDA-MB-435 = system: MDA-MB-435
MDA-N = system: MDA-N
MOLT-4 = system: MOLT-4
Malme-3M = system: Malme-3M
NCI-H226 = system: NCI-H226
NCI-H23 = system: NCI-H23
NCI-H460 = system: NCI-H460
NCI-H522 = system: NCI-H522
NCI/ADR-RES = system: NCI/ADR-RES
OVCAR-3 = system: OVCAR-3
OVCAR-4 = system: OVCAR-4
OVCAR-5 = system: OVCAR-5
OVCAR-8 = system: OVCAR-8
PC-3 = system: PC-3
RXF 393 = system: RXF 393
SF-268 = system: SF-268
SF-295 = system: SF-295
SF-539 = system: SF-539
SK-MEL-2 = system: SK-MEL-2
SK-MEL-5 = system: SK-MEL-5
SK-OV-3 = system: SK-OV-3
SN12C = system: SN12C
SNB-19 = system: SNB-19
SNB-75 = system: SNB-75
SR = system: SR
SW-620 = system: SW-620
TK-10 = system: TK-10
U-251 = system: U-251
UACC-257 = system: UACC-257
UACC-62 = system: UACC-62
UO-31 = system: UO-31

For CN(/N=C/c1ccnc2ccccc12)c1ccc(Cl)cc1[N+](=O)[O-], the GI50 (786-0) was 49.9 µM (inactive), the GI50 (A498) was > 100 µM (inactive) and the GI50 (A549) was > 100 µM (inactive). For the same compound, the GI50 (ACHN) was > 100 µM (inactive), the GI50 (BT-549) was 6.95 µM (inactive) and the GI50 (CAKI-1) was > 100 µM (inactive). For the same compound, the GI50 (CCRF-CEM) was 50 µM (inactive), the GI50 (COLO 205) was > 100 µM (inactive) and the GI50 (DU-145) was > 100 µM (inactive). The GI50 (EKVX) was 12.2 µM (inactive), the GI50 (HCC 2998) was > 100 µM (inactive) and the GI50 (HCT-116) was > 100 µM (inactive). For the same compound, the GI50 (HCT-15) was over 100 µM, the GI50 (HL-60) was > 100 µM (inactive) and the GI50 (HOP-62) was 31.8 µM (inactive). For the same compound, the GI50 (HOP-92) was 25.8 µM (inactive), the GI50 (HT-29) was 98.2 µM (inactive) and the GI50 (Hs-578T) was 12.5 µM (inactive). The GI50 (IGROV-1) was > 100 µM (inactive), the GI50 (K562) was > 100 µM (inactive) and the GI50 (KM12) was > 100 µM (inactive). For the same compound, the GI50 (M14) was > 100 µM (inactive), the GI50 (MCF7) was 83.9 µM (inactive) and the GI50 (MDA-MB-231) was > 100 µM (inactive). For the same compound, the GI50 (MDA-MB-435) was > 100 µM (inactive), the GI50 (MDA-N) was > 100 µM (inactive) and the GI50 (MOLT-4) was 45.3 µM (inactive). For the same compound, the GI50 (Malme-3M) was 70.3 µM (inactive), the GI50 (NCI-H226) was > 100 µM (inactive) and the GI50 (NCI-H23) was 8.57 µM (inactive). For the same compound, the GI50 (NCI-H460) was > 100 µM (inactive), the GI50 (NCI-H522) was > 100 µM (inactive) and the GI50 (NCI/ADR-RES) was > 100 µM (inactive). For the same compound, the GI50 (OVCAR-3) was 80.9 µM (inactive), the GI50 (OVCAR-4) was 4.92 µM (inactive) and the GI50 (OVCAR-5) was > 100 µM (inactive). The GI50 (OVCAR-8) was 85.5 µM (inactive), the GI50 (PC-3) was > 100 µM (inactive) and the GI50 (RXF 393) was 37.3 µM (inactive). The GI50 (SF-268) was 80 µM (inactive), the GI50 (SF-295) was 15.1 µM (inactive) and the GI50 (SF-539) was 24.4 µM (inactive). For the same compound, the GI50 (SK-MEL-2) was > 100 µM (inactive), the GI50 (SK-MEL-5) was 6.12 µM (inactive) and the GI50 (SK-OV-3) was > 100 µM (inactive). For the same compound, the GI50 (SN12C) was > 100 µM (inactive), the GI50 (SNB-19) was > 100 µM (inactive) and the GI50 (SNB-75) was 26.6 µM (inactive). The GI50 (SR) was 2.64 µM (inactive), the GI50 (SW-620) was > 100 µM (inactive) and the GI50 (TK-10) was 35.6 µM (inactive). For the same compound, the GI50 (U-251) was > 100 µM (inactive), the GI50 (UACC-257) was 9.59 µM (inactive) and the GI50 (UACC-62) was > 100 µM (inactive). The GI50 (UO-31) was > 100 µM (inactive).

Source: ChEMBL document CHEMBL1201862, “PubChem BioAssay data set” (2004)
